# Source: PMC10644971 (Bioconjugate chemistry, 2023)
# What was measured:
# [1] = ref Erazo-Oliveras et al., Nat Methods 2014, 11, 861-867; cited from earlier work
# [2] = ref Erazo-Oliveras et al., Cell Chem Biol 2016, 23, 598-607; cited from earlier work
# [3] = molecular target: 3 (disulfide-linked dimer of fTAT-ST) (HIV); assay: covalent SnoopTag/SnoopCatcher ligation followed by SDS-PAGE (in-gel fluorescence, Coomassie) and MALDI-TOF mass spectrometry; SC (40 μM) reacted with 2 (10 μM), or SC (80 μM) with 3 (10 μM), for 1 hour in TBS (20 mM Tris, 150 mM NaCl, pH 7.4); covalent isopeptide bond; products purified by cation exchange chromatography
# [4] = molecular target: dfTAT-ST (2) (HIV); assay: as above
Substance,endosomal escape of the monomeric form [1],leakage of liposomes mimicking the lipid composition of late endosomes [2],stoichiometry N [3] [copies],stoichiometry N [4] [copies]
"CK(TMR)RKKRRQRRR [fTAT, reference compound]",does not mediate detectable endosomal escape,does not cause leakage,–,–
SnoopCatcher (SC) (designed binder),–,–,2,1
